# Measured values from patent publication US4977175A, “4,5,6,7-tetrahydrobenzimidazole derivatives as 5HT3 -antagonists” (Yamanouchi Pharmaceutical Co., Ltd., priority 1988, dated 1990).
# Where a name gives a salt, the structure may show the parent alone. Read-outs that look alike come from different tables or passages of the source.
# Biological target: T1, 5-HT3 receptor (Rattus norvegicus, UniProt P35563)
# T1 construct: Wistar strain male rats of 9 week age were anesthesized; from tissue; host or cells: whole anesthetized Wistar rat in vivo (endogenous receptor; cardiac vagal afferents by own knowledge)
# T1 sequence (P35563 24-483): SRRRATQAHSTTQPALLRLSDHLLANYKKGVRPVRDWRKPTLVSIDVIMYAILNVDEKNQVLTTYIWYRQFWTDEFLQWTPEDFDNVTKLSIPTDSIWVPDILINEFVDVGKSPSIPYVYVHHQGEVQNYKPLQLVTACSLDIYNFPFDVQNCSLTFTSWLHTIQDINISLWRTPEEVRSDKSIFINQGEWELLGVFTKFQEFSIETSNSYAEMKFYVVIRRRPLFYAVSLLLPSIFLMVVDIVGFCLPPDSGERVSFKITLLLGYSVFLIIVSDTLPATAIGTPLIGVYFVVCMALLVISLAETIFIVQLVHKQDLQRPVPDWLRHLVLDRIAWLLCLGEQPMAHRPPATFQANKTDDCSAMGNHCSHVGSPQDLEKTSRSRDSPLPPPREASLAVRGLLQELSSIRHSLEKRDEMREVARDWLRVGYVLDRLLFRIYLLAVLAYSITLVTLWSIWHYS
# Assay: Inhibition of serotonin- or 2-methylserotonin-induced Bezold-Jarisch (BJ) reflex in anesthetized rats (5-HT3-antagonizing activity)
# Format: in vivo, Wistar strain male rats
# Conditions: serotonin-induced BJ reflex in rats, read-out: BJ Reflex Inhibitory Activity (ED50)
# Description: Wistar strain male rats of 9 week age were anesthesized with intraperitoneally administering 1 g/kg of urethane. Under artificial respiration, blood pressure and heart rate were measured. Transient reduction in heart rate and in blood pressure induced by intravenous administration of serotonin or 2-methylserotonin which is a selective agonist of 5-HT3 was used as an index for the reaction via 5-HT3 receptor (Bezold-Jarisch reflex : Paintal, A.S., Physiol. Rev., 53, 159, 1973).
# Inhibitory activity of the compounds of the present invention on serotonin-induced Bezold-Jarisch (BJ) reflex in rats is shown in the table below.
ED50 (iv),ED50 (po),Compound
0.32 µg/kg,5.9 µg/kg,"COc1ccccc1NC(=O)C1CCc2[nH]cnc2C1 (racemic) [Example 1, N-(2-methyloxyphenyl) -4,5,6,7-tetrahydrobenzimidazole-5carboxamide fumarate 0.8hydrate]"
1.2 µg/kg,6.6 µg/kg,"CCOc1ccccc1NC(=O)C1CCc2nc[nH]c2C1.O=C(O)/C=C/C(=O)O (stereo not shown) [Example 13, N-(2-Ethoxyphenyl)-4,5,6,7-tetrahydrobenzimidazole-5-carboxamide fumarate]"
